According to patent US8445719B2, “Method of stabilizing heme protein and storage solution therefor” (priority 2007, dated 2013):

Tests used:
[1] = target: fecal human hemoglobin (Homo sapiens, UniProt P68871+P69905); details: single use of EDTA
[2] = target: Hemoglobin (Homo sapiens, UniProt P68871+P69905); assay: Hemoglobin stabilization effect in storage solution, hemoglobin only (residual ratio by immunological measurement); details: for Residual ratio, Hemoglobin: stored at 37° C. for 20 hours, pH 7.0 HEPES storage solution; for Stabilizing effect (in words): 0.001-0.050 mol/L
Hemoglobin, sequence (P69905 2-142 limits assumed): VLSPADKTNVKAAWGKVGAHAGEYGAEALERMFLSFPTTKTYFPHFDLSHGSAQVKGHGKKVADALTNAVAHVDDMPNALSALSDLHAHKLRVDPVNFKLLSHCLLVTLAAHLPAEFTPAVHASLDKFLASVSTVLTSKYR
Hemoglobin, sequence (P68871 2-147 limits assumed): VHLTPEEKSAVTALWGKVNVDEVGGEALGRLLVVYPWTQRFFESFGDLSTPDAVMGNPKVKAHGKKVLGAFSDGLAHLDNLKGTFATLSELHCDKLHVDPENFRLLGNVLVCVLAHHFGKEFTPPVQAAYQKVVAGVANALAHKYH

[3] = target: Hemoglobin + feces sample (Homo sapiens, UniProt P68871+P69905); assay: Hemoglobin stabilization effect in storage solution, hemoglobin coexisting with feces sample (residual ratio by immunological measurement); details: for Residual ratio, Hemoglobin + feces sample: stored at 37° C. for 20 hours, pH 7.0 HEPES storage solution; for Stabilizing effect (in words): 0.001-0.050 mol/L
Hemoglobin + feces sample, sequence (P69905 2-142 limits assumed): as the sequence (P69905 2-142 limits assumed) above
Hemoglobin + feces sample, sequence (P68871 2-147 limits assumed): as the sequence (P68871 2-147 limits assumed) above

[4] = test solution of hemoglobin only, 37° C., 20 hours
[5] = test solution in which hemoglobin and feces coexist, 37° C., 20 hours

fecal human hemoglobin, sequence (P69905 2-142 limits assumed): as the sequence (P69905 2-142 limits assumed) above
fecal human hemoglobin, sequence (P68871 2-147 limits assumed): as the sequence (P68871 2-147 limits assumed) above

Residual ratio, Hemoglobin ([2]; 0.001 mol/L agent added) [%] | Residual ratio, Hemoglobin ([2]; 0.010 mol/L agent added) [%] | Residual ratio, Hemoglobin ([2]; 0.050 mol/L agent added) [%] | Stabilizing effect (in words) [2, 4] | Residual ratio, Hemoglobin + feces sample ([3]; 0.001 mol/L agent added) [%] | Residual ratio, Hemoglobin + feces sample ([3]; 0.010 mol/L agent added) [%] | Residual ratio, Hemoglobin + feces sample ([3]; 0.050 mol/L agent added) [%] | Structure (SMILES) | Stabilizing effect (in words) [3, 5] | other results
79.5 | 79.8 | 82.4 | slight stabilizing effect was observed | 34.3 | 35.8 | 37.1 | O=C(O)CN(CCN(CC(=O)O)CC(=O)O)CC(=O)O [EDTA, ethylenediamine-N,N,N′,N′-4 acetic acid] | slightly higher effect to stabilize hemoglobin was observed | Stabilizing action on fecal human hemoglobin (in words) [1]: sufficient stabilizing action on fecal human hemoglobin cannot be expected
80.3 | 79.3 | 81.6 | slight stabilizing effect was observed | 26.1 | 26.4 | 27.3 | O=C(O)CN(CCO)CC(=O)O [HIDA, N-(2-hydroxyethyl) iminodiacetic acid] | any certain stabilizing effect was not observed | –
82.1 | 80.9 | 81.0 | slight stabilizing effect was observed | 28.0 | 27.3 | 26.3 | O=C(O)CNCC(=O)O [IDA, iminodiacetic acid] | any certain stabilizing effect was not observed | –

Structure (SMILES) | Residual ratio, Hemoglobin ([2]; 0.001 mol/L agent added) [%] | Residual ratio, Hemoglobin ([2]; 0.010 mol/L agent added) [%] | Residual ratio, Hemoglobin ([2]; 0.050 mol/L agent added) [%] | Stabilizing effect (in words) [2, 4] | Residual ratio, Hemoglobin + feces sample ([3]; 0.001 mol/L agent added) [%] | Residual ratio, Hemoglobin + feces sample ([3]; 0.010 mol/L agent added) [%] | Residual ratio, Hemoglobin + feces sample ([3]; 0.050 mol/L agent added) [%] | Stabilizing effect (in words) [3, 5] | other results
O=C([O-])CC(NC(C(=O)[O-])C(O)C(=O)[O-])C(=O)[O-].[Na+].[Na+].[Na+].[Na+] (centres unmarked) [HIDS, tetrasodium 3-hydroxy-2,2′-iminodisuccinate] | 82.8 | 84.2 | 84.1 | – | 28.8 | 39.2 | 50.8 | – | Residual ratio, Hemoglobin ([2]; 0.005 mol/L agent added): 83.9%; Residual ratio, Hemoglobin ([2]; 0.075 mol/L agent added): 85.2%; Residual ratio, Hemoglobin ([2]; 0.100 mol/L agent added): 87.8%; Residual ratio, Hemoglobin ([2]; 0.150 mol/L agent added): 88.2%; Residual ratio, Hemoglobin ([2]; 0.200 mol/L agent added): 86.2%; Concentration at which a stabilizing effect was observed [2, 4]: ≥ 0.001 mol/L; Residual ratio, Hemoglobin + feces sample ([3]; 0.005 mol/L agent added): 32.3%; Residual ratio, Hemoglobin + feces sample ([3]; 0.075 mol/L agent added): 53.9%; Residual ratio, Hemoglobin + feces sample ([3]; 0.100 mol/L agent added): 55.9%; Residual ratio, Hemoglobin + feces sample ([3]; 0.150 mol/L agent added): 57.8%; Residual ratio, Hemoglobin + feces sample ([3]; 0.200 mol/L agent added): 46.3%; Concentration at which the effect to stabilize hemoglobin was remarkable ([3]; 37° C., 20 hours): ≥ 0.050 mol/L; Concentration at which the stabilizing effect is observed [3, 5]: ≥ 0.005 mol/L
